Laboratory results as given in patent US12503438B2, “Compounds for the treatment of kinase-dependent disorders” (Exelixis, Inc., priority 2019, dated 2025).

Experiments:
KDR = KDR (Homo sapiens, UniProt P35968); test: KDR autophosphorylation ELISA in HUVEC cells; assay type: cell-based; parameters: endogenous in cells; host or cells: HUVEC (Lonza #C2519A); conditions: cellular activity, VEGF165-stimulated, phospho-KDR ELISA
Protocol: Human umbilical vein endothelial cells or HUVEC (Lonza #C2519A) were seeded at 2×10^4 cells/well onto 96-well plates (Corning #3904), in EGM-2 growth medium (Lonza #CC-3162) containing 1% Penicillin Streptomycin (Thermo Fisher #15140-122). HUVEC cells were incubated at 37° C., 5% CO2 for 24 h and then starved for 24 h in serum-free EBM-2 basal medium (Lonza #CC-3156) containing 1% Penicillin Streptomycin. Test compounds were serially diluted to produce an 8-point dose curve in fresh serum-free medium to a final concentration of 0.3% DMSO (vehicle) and added to the cells and incubated for 1 h. Cells were then stimulated with 100 ng/mL recombinant human VEGF165 (R&D Systems #293-VE-500) for 5 min, washed with cold PBS, and immediately lysed with 130 μL of cold 1× lysis buffer [20 mM Tris, 137 mM sodium chloride, 2 mM EDTA, 10% glycerol, 1% NP-40 alternative, 1 mM activated sodium orthovanadate, 1 mM PefaBloc SC (Sigma-Aldrich #11429868001), protease/phosphatase inhibitor tablet (Thermo Fisher #A32959)]. Lysates were collected and 100 μL/well added into the human phospho-KDR DuoSet IC ELISA (R&D Systems #DYC1766-2). Assay was performed according to manufacturer's instructions and sample phospho-KDR concentrations were extrapolated using human phospho-KDR control (R&D Systems #841421) as a standard. Positive control wells (100% activity) contained VEGF165-stimulated, DMSO-treated cell lysates. Negative control wells (0% activity) contained non-stimulated cell lysates. IC50 values were calculated by nonlinear regression analysis using a 4-parameter logistic curve fit in ActivityBase XE (IDBS).

Met = Met (Homo sapiens, UniProt P08581); test: Met autophosphorylation ELISA in PC-3 cells; assay type: cell-based; parameters: endogenous in cells; host or cells: PC-3 prostate cancer cells (ATCC #CRL-1435); conditions: cellular activity, HGF-stimulated, phospho-Met ELISA, read-out: c-Met IC50
Protocol: PC-3 prostate cancer cells (ATCC #CRL-1435) were seeded at 4×10^4 cells/well onto 24-well plates (Greiner #662165), in DMEM (Thermo Fisher #11995-040) containing 10% FBS (Thermo Fisher #26140-079), 1% MEM NEAA (Thermo Fisher #11140-050), 1% GlutaMax (Thermo Fisher #35050-061), and 1% Penicillin Streptomycin (Thermo Fisher #15140-122). PC-3 cells were incubated at 37° C., 5% CO2 for 24 h and then starved for 3 h in serum-free medium. Test compounds were serially diluted to produce an 8-point dose curve in fresh serum-free medium to a final concentration of 0.3% DMSO (vehicle) and added to the cells and incubated for 1 h. Cells were then stimulated with 100 ng/mL recombinant human HGF (R&D Systems #294-HG-250) for 10 min, washed with cold PBS and immediately lysed with 130 μL of cold 1× lysis buffer [20 mM Tris, 137 mM sodium chloride, 2 mM EDTA, 10% glycerol, 1% NP-40 alternative, 1 mM activated sodium orthovanadate, 1 mM PefaBloc SC (Sigma-Aldrich #11429868001), protease/phosphatase inhibitor tablet (Thermo Fisher #A32959)]. Lysates were clarified by centrifugation and 100 μL/well added into the PathScan phospho-Met (panTyr) Sandwich ELISA (Cell Signaling Technology #7333). Assay was performed according to manufacturer's instructions. Positive control wells (100% activity) contained HGF-stimulated, DMSO-treated cell lysates. Negative control wells (0% activity) contained HGF-stimulated, reference inhibitor-treated cell lysates. IC50 values were calculated by nonlinear regression analysis using a 4-parameter logistic curve fit in ActivityBase XE (IDBS).

KDR, sequence (P35968 20-1356): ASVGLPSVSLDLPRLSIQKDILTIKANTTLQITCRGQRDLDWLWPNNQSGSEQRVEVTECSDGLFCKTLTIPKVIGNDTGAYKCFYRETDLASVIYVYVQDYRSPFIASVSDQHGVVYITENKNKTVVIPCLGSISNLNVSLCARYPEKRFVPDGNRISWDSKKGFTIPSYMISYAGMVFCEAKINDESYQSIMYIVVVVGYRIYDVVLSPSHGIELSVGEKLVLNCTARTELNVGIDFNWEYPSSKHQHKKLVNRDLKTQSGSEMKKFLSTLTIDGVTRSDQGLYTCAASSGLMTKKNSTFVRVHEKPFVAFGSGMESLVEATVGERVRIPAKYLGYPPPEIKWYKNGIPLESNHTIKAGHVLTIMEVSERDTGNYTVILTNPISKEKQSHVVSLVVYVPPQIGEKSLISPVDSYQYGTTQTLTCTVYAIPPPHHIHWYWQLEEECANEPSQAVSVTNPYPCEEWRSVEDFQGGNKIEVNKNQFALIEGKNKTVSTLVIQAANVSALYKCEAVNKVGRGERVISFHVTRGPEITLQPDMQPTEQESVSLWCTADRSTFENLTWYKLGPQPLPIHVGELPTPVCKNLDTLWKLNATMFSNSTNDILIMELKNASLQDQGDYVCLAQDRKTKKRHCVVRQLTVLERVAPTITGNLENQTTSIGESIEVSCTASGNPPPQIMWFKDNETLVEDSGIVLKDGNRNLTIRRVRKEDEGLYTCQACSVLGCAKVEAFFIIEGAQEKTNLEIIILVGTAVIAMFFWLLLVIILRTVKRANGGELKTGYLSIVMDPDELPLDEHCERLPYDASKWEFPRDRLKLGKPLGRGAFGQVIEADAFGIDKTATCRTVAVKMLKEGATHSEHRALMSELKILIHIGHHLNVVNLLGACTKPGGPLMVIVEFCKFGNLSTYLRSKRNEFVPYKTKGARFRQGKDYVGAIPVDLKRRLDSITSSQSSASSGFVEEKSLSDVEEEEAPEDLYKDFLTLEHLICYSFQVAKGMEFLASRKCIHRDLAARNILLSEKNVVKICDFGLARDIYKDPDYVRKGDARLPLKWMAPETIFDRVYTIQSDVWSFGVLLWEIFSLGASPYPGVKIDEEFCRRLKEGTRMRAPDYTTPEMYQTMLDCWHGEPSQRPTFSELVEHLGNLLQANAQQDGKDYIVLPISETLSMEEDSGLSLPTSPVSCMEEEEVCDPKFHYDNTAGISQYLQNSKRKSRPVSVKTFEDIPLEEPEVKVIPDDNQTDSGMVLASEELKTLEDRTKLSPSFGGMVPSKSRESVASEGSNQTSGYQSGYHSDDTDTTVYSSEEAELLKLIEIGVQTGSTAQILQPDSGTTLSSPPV
Met, sequence (P08581 25-1390): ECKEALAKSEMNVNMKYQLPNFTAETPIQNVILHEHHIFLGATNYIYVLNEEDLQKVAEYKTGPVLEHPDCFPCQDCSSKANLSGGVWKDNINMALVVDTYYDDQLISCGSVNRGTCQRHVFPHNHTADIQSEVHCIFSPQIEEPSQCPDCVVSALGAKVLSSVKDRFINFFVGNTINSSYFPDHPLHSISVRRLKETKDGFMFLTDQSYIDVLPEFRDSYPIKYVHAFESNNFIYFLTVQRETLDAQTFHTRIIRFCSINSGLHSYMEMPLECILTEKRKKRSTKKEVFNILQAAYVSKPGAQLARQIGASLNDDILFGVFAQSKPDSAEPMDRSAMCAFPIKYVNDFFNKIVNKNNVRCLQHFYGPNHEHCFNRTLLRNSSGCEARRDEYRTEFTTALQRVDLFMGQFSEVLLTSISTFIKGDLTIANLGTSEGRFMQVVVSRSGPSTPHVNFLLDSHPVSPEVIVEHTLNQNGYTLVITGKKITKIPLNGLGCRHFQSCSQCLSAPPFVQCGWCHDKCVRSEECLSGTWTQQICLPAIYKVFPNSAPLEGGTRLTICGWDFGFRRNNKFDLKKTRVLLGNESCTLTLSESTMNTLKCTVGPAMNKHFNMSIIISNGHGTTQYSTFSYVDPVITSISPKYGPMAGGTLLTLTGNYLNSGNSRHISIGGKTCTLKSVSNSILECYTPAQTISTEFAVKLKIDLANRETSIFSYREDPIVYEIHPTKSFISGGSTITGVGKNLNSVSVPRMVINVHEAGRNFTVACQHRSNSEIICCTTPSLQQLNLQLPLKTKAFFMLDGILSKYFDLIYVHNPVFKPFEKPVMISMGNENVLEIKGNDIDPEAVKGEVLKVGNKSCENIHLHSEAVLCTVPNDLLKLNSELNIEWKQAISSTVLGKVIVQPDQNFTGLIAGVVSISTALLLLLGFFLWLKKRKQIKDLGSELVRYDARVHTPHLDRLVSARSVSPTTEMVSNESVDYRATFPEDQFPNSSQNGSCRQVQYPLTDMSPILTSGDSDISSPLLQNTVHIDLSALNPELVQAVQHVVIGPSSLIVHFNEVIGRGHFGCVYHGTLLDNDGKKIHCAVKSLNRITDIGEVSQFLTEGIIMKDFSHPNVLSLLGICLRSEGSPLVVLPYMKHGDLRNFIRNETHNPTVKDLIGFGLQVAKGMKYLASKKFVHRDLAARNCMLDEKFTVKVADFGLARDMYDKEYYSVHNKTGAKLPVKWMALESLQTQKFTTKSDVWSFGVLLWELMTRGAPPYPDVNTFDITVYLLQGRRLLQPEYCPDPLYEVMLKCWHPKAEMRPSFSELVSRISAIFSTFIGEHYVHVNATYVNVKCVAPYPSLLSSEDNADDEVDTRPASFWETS

Row | SMILES | IC50 (KDR) [µM] | IC50 (Met) [µM]
1 | CN1CCN(c2cc(-c3ccc4c(Oc5ccc(NC(=O)C6(C(=O)Nc7ccc(F)cc7)CC6)cc5)ccnc4c3)ccn2)CC1 [Compound 111, 1-N′-(4-Fluorophenyl)-1-N-[4-[7-[2-(4-methylpiperazin-1-yl)pyridin-4-yl]quinolin-4-yl]oxyphenyl]cyclopropane-1,1-dicarboxamide] | 0.01 to 0.1 | 0.1 to 0.3
2 | COc1cncc(-c2ccc3c(Oc4ccc(NC(=O)C5(C(=O)Nc6ccc(F)cc6)CC5)cc4)ccnc3c2)c1 [Compound 47, 1-N′-(4-Fluorophenyl)-1-N-[4-[7-(5-methoxypyridin-3-yl)quinolin-4-yl]oxyphenyl]cyclopropane-1,1-dicarboxamide] | 0.1 to 0.3 | 0.1 to 0.3
3 | O=C(Nc1ccc(F)cc1)C1(C(=O)Nc2ccc(Oc3ccnc4cc(-c5cncs5)ccc34)cc2)CC1 [Compound 116, 1-N′-(4-Fluorophenyl)-1-N-[4-[7-(1,3-thiazol-5-yl)quinolin-4-yl]oxyphenyl]cyclopropane-1,1-dicarboxamide] | ≤ 0.01 | 0.01 to 0.1
4 | CC(C)Oc1ccc(-c2ccc3c(Oc4ccc(NC(=O)C5(C(=O)Nc6ccc(F)cc6)CC5)cc4)ccnc3c2)cn1 [Compound 50, 1-N′-(4-Fluorophenyl)-1-N-[4-[7-(6-propan-2-yloxypyridin-3-yl)quinolin-4-yl]oxyphenyl]cyclopropane-1,1-dicarboxamide] | – | 0.1 to 0.3
5 | Cc1cc2c(Oc3ccc(NC(=O)C4(C(=O)Nc5ccc(F)cc5)CC4)cc3)ccnc2cc1-c1ncc[nH]1 [Compound 120, 1-N′-(4-Fluorophenyl)-1-N-[4-[7-(1H-imidazol-2-yl)-6-methylquinolin-4-yl]oxyphenyl]cyclopropane-1,1-dicarboxamide] | – | 0.01 to 0.1
6 | O=C(Nc1ccc(F)cc1)C1(C(=O)Nc2ccc(Oc3ccnc4cc(-c5ccc(F)nc5)ccc34)cc2)CC1 [Compound 41, 1-N′-(4-Fluorophenyl)-1-N-[4-[7-(6-fluoropyridin-3-yl)quinolin-4-yl]oxyphenyl]cyclopropane-1,1-dicarboxamide] | 0.01 to 0.1 | 0.01 to 0.1
7 | O=C(Nc1ccc(F)cc1)C1(C(=O)Nc2ccc(Oc3ccnc4cc(-c5cccnc5)ccc34)c(F)c2)CC1 [Compound 113, 1-N-(4-Fluorophenyl)-1-N′-[3-fluoro-4-(7-pyridin-3-ylquinolin-4-yl)oxyphenyl]cyclopropane-1,1-dicarboxamide] | ≤ 0.01 | 0.01 to 0.1
8 | O=C(Nc1ccc(F)cc1)C1(C(=O)Nc2ccc(Oc3ccnc4cc(-c5cnn6c5CCC6)ccc34)cc2)CC1 [Compound 29, 1-N-[4-[7-(5,6-Dihydro-4H-pyrrolo[1,2-b]pyrazol-3-yl)quinolin-4-yl]oxyphenyl]-1-N′-(4-fluorophenyl)cyclopropane-1,1-dicarboxamide] | 0.01 to 0.1 | 0.01 to 0.1
9 | N#Cc1cncc(-c2ccc3c(Oc4ccc(NC(=O)C5(C(=O)Nc6ccc(F)cc6)CC5)cc4)ccnc3c2)c1 [Compound 40, 1-N-[4-[7-(5-Cyanopyridin-3-yl)quinolin-4-yl]oxyphenyl]-1-N′-(4-fluorophenyl)cyclopropane-1,1-dicarboxamide] | 0.01 to 0.1 | 0.01 to 0.1
10 | O=C(Nc1ccc(F)cc1)C1(C(=O)Nc2ccc(Oc3ccnc4cc(-c5cncc(F)c5)ccc34)cc2)CC1 [Compound 45, 1-N′-(4-Fluorophenyl)-1-N-[4-[7-(5-fluoropyridin-3-yl)quinolin-4-yl]oxyphenyl]cyclopropane-1,1-dicarboxamide] | 0.1 to 0.3 | 0.1 to 0.3
11 | N#Cc1cc(-c2ccc3c(Oc4ccc(NC(=O)C5(C(=O)Nc6ccc(F)cc6)CC5)cc4)ccnc3c2)ccn1 [Compound 34, 1-N-[4-[7-(2-Cyanopyridin-4-yl)quinolin-4-yl]oxyphenyl]-1-N′-(4-fluorophenyl)cyclopropane-1,1-dicarboxamide] | 0.01 to 0.1 | 0.01 to 0.1

Next, values leading:

Row | IC50 (KDR) [µM] | IC50 (Met) [µM] | SMILES
12 | 0.1 to 0.3 | 0.01 to 0.1 | Cc1cc2c(Oc3c(F)cc(NC(=O)C4(C(=O)Nc5ccc(F)cc5)CC4)c(F)c3F)ccnc2cc1-c1cnn(C)c1 [Compound 110, 1-N-(4-Fluorophenyl)-1-N′-[2,3,5-trifluoro-4-[6-methyl-7-(1-methylpyrazol-4-yl)quinolin-4-yl]oxyphenyl]cyclopropane-1,1-dicarboxamide]
13 | ≤ 0.01 | 0.01 to 0.1 | O=C(Nc1ccc(F)cc1)C1(C(=O)Nc2cc(F)c(Oc3ccnc4cc(-c5cccnc5)ccc34)cc2F)CC1 [Compound 115, 1-N′-[2,5-Difluoro-4-(7-pyridin-3-ylquinolin-4-yl)oxyphenyl]-1-N-(4-fluorophenyl)cyclopropane-1,1-dicarboxamide]
14 | 0.01 to 0.1 | 0.01 to 0.1 | O=C(Nc1ccc(F)cc1)C1(C(=O)Nc2ccc(Oc3ccnc4cc(-c5cc6n(n5)CCC6)ccc34)cc2)CC1 [Compound 124, 1-N-[4-[7-(5,6-Dihydro-4H-pyrrolo[1,2-b]pyrazol-2-yl)quinolin-4-yl]oxyphenyl]-1-N′-(4-fluorophenyl)cyclopropane-1,1-dicarboxamide]
15 | 0.01 to 0.1 | 0.01 to 0.1 | COc1cc(-c2ccc3c(Oc4ccc(NC(=O)C5(C(=O)Nc6ccc(F)cc6)CC5)cc4)ccnc3c2)ccn1 [Compound 31, 1-N′-(4-Fluorophenyl)-1-N-[4-[7-(2-methoxypyridin-4-yl)quinolin-4-yl]oxyphenyl]cyclopropane-1,1-dicarboxamide]
16 | 0.01 to 0.1 | 0.01 to 0.1 | Cc1cc2c(Oc3cc(F)c(NC(=O)C4(C(=O)Nc5ccc(F)cc5)CC4)cc3F)ccnc2cc1-c1ncc[nH]1 [Compound 121, 1-N′-[2,5-Difluoro-4-[7-(1H-imidazol-2-yl)-6-methylquinolin-4-yl]oxyphenyl]-1-N-(4-fluorophenyl)cyclopropane-1,1-dicarboxamide]
17 | ≤ 0.01 | 0.01 to 0.1 | CC(C)n1cc(-c2ccc3c(Oc4ccc(NC(=O)C5(C(=O)Nc6ccc(F)cc6)CC5)cc4)ccnc3c2)cn1 [Compound 21, 1-N′-(4-Fluorophenyl)-1-N-[4-[7-(1-propan-2-ylpyrazol-4-yl)quinolin-4-yl]oxyphenyl]cyclopropane-1,1-dicarboxamide]
18 | ≤ 0.01 | 0.01 to 0.1 | Cn1ccc(-c2ccc3c(Oc4ccc(NC(=O)C5(C(=O)Nc6ccc(F)cc6)CC5)cc4)ccnc3c2)cc1=O [Compound 117, 1-N′-(4-Fluorophenyl)-1-N-[4-[7-(1-methyl-2-oxopyridin-4-yl)quinolin-4-yl]oxyphenyl]cyclopropane-1,1-dicarboxamide]
19 | ≤ 0.01 | 0.01 to 0.1 | O=C(Nc1ccc(F)cc1)C1(C(=O)Nc2ccc(Oc3ccnc4cc(-c5ccncn5)ccc34)cc2)CC1 [Compound 114, 1-N′-(4-Fluorophenyl)-1-N-[4-(7-pyrimidin-4-ylquinolin-4-yl)oxyphenyl]cyclopropane-1,1-dicarboxamide]
20 | 0.01 to 0.1 | 0.01 to 0.1 | Cc1cc2c(Oc3ccc(NC(=O)C4(C(=O)Nc5ccc(F)cc5)CC4)cc3F)ccnc2cc1-c1ncc[nH]1 [Compound 122, 1-N′-[3-Fluoro-4-[7-(1H-imidazol-2-yl)-6-methylquinolin-4-yl]oxyphenyl]-1-N-(4-fluorophenyl)cyclopropane-1,1-dicarboxamide]
21 | 0.01 to 0.1 | 0.01 to 0.1 | O=C(Nc1ccc(F)cc1)C1(C(=O)Nc2ccc(Oc3ccnc4cc(-c5ccnc(F)c5)ccc34)cc2)CC1 [Compound 33, 1-N′-(4-Fluorophenyl)-1-N-[4-[7-(2-fluoropyridin-4-yl)quinolin-4-yl]oxyphenyl]cyclopropane-1,1-dicarboxamide]
